From US7736624B2, “Methods and compositions for diagnostic and therapeutic targeting of COX-2” (priority 2006, dated 2010)
“Also recorded” adds a separate entry of the source. Read-outs that look alike come from different tables or passages of the source.

What was measured:
Fluorescence in buffer = assay type: physicochemical; conditions: for Fluor. λem: emission; for Fluor. λex: excitation
COX-2 = molecular target: T1, COX-2 (Mus musculus, UniProt Q05769); assay: Macrophage assay (RAW264.7), COX-2; assay type: cell-based, murine
T1 construct: metabolism by the newly synthesized COX-2; endogenous in cells
T1 sequence (Q05769 18-604): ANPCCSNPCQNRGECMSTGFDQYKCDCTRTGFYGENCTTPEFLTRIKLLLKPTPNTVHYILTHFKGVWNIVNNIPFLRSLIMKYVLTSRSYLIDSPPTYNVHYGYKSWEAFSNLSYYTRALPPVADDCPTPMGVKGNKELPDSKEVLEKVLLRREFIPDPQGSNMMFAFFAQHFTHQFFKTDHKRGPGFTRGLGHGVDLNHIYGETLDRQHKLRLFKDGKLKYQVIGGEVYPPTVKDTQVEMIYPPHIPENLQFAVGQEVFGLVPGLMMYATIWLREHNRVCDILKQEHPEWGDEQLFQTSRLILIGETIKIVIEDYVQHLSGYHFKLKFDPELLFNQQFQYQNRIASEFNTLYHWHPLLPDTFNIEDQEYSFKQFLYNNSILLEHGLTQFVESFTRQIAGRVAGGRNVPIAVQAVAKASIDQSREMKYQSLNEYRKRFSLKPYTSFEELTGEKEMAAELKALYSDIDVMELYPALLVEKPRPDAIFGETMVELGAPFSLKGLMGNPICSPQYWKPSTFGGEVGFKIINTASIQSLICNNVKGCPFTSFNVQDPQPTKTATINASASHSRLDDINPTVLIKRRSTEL
Excerpt: (§1) Thus, NSAID derivatives that are identified as potentially useful in the methods described herein can be further tested using, for example, the RAW264.7 murine macrophage cell line. These cells are readily available (for example, from the American Type Culture Collection (ATCC), Manassas, Va., United States of America) and are easily cultured in large numbers. They normally express low levels of COX-1 and very low to undetectable levels of COX-2. Upon exposure to bacterial lipopolysaccharide (LPS), however, COX-2 levels increase dramatically over the ensuing 24 hour period, and the cells produce PGD2 and PGE2 from endogenous arachidonic acid stores (generally, ˜1 nmol/10^7 cells total PG formation). After LPS exposure, the addition of exogenous arachidonic acid results in the formation of additional PGD2 and PGE2 as a result of metabolism by the newly synthesized COX-2.
(§2) This system provides a number of approaches for testing the inhibitory potency of COX-2-selective ligands (e.g., inhibitors). In general, following LPS activation, cells can be treated for 30 minutes with the desired concentrations of candidate derivative(s) in DMSO. ^14C-arachidonic acid can be added, and the cells can be incubated for 15 minutes at 37° C. Product formation can be assessed following extraction and TLC separation of the culture medium. Alternatively, the effects of candidate derivatives on PG synthesis from endogenous arachidonic acid can be assessed by incubating cells with desired concentrations of candidate derivatives 30 minutes prior to LPS exposure. Following a 24-hour incubation, medium can be collected and extracted, and the amount of PGD2 and/or PGE2 can be assayed by gas chromatography-mass spectrometry, liquid chromatography-mass spectrometry, or ELISA.

COX-1 = molecular target: T2, COX-1 (Mus musculus, UniProt P22437); assay: Macrophage assay (RAW264.7), COX-1; assay type: cell-based, murine
T2 sequence (P22437 1-602): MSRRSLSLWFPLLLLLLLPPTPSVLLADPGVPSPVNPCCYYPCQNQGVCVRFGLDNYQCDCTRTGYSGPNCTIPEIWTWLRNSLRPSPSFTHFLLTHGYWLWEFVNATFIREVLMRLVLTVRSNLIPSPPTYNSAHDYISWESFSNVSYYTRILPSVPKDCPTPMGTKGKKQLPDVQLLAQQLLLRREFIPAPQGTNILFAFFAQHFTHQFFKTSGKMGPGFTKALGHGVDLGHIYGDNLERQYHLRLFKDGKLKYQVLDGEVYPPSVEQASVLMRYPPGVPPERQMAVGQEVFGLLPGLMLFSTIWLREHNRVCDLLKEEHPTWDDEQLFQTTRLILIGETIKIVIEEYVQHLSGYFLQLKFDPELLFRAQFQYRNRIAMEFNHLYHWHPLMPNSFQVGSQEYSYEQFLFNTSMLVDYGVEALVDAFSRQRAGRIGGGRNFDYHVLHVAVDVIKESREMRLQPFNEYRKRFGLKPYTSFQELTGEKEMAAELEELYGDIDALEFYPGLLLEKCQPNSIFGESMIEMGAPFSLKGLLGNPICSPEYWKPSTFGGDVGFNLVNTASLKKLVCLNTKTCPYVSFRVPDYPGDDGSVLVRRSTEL
Excerpt: as §1, §2

RAW264.7 cells = assay: In vitro cell imaging, LPS/IFNγ-activated RAW264.7 cells; assay type: cell-based, mouse; conditions: for fluorescence imaging of cells: 200 nM, 30 minutes, LPS-activated RAW264.7; for fluorescent signal after indomethacin pretreatment: indomethacin (20 μM) pretreatment, RAW264.7
Protocol: RAW264.7 cells (a line established from a tumor induced in a mouse by Abelson murine leukemia virus and available from the American Type Culture Collection, Manassas, Va., United States of America) were grown overnight on 35 mm culture dishes (MatTek Corp., Ashland, Mass., United States of America) with glass coverslips in Dulbecco's Modified Eagle Medium (DMEM) plus 10% heat-inactivated fetal bovine serum (FBS). Platings of cells were done in order to reach 30% confluency the next day. After overnight growth, the growth medium was replaced with 2 ml serum-free DMEM per dish. Individual dishes then received 200 ng/ml LPS plus 10 units/ml murine IFNγ (Roche Applied Science, Indianapolis, Ind., United States of America) for 6 hours to induce COX-2. […] After 30 minutes, the cells were washed briefly three times in medium and incubated in Hank's balanced salt solution (HBSS)/Tyrode's for 60 minutes at 37° C. After 60 minutes, the HBSS/Tyrode's was removed and fresh HBSS/Tyrode's was added. The cells were immediately imaged using a Zeiss Axiovert 25 Microscope (propidium iodide filter/2-3 sec exposure/gain of 2).

[1] = test system: COX-2-transformed HEK293 cells; assay: In vitro cell imaging, HEK293 cells expressing human COX-2; assay type: cell-based; conditions: HEK293/COX-2; for fluorescent staining of cells: 200 nM; for fluorescent staining after indomethacin pretreatment: indomethacin (20 μM) pretreatment
Protocol: A second experimental design employed HEK293 cells (a cell line generated by transformation of human embryonic kidney cell cultures with adenovirus) that had been transformed with an expression construct encoding a constitutively active human COX-2. For imaging experiments, cells were also plated on 35 mm culture dishes (MatTek Corp., Ashland, Mass., United States of America) with glass coverslips and grown to 70% confluency in DMEM plus 20% FBS. When the appropriate confluency was reached (approximately 48 hours after plating), the medium was replaced with DMEM/1% FBS and exposed to 200 nM Compound 27vv or Compound 27ww as described hereinabove. After 30 minutes, the cells were washed briefly 3 times and incubated in DMEM/10% FBS for 60 minutes at 37° C. After 60 minutes, the medium was removed and the cells were washed with HBSS/Tyrode's. After the second wash, fresh HBSS/Tyrode's was added and the cells were immediately imaged using a Zeiss Axiovert 25 Microscope (propidium iodide filter/3 sec exposure/gain of 3).

[2] = Table 3, macrophage assay, read-out: IC50 COX-2

Compound | Fluor. λem (Fluorescence in buffer) [nm] | Fluor. λex (Fluorescence in buffer) [nm] | IC50 (COX-2; [2]) [M] | IC50 (COX-1; Table 3, macrophage assay) [M] | IC50 (COX-2; read-out: IC50 in RAW 264.7 cells) [M] | IC50 (COX-2; Table 2, macrophage assay (M), read-out: IC50 COX-2) [M] | IC50 (COX-1; Table 2, macrophage assay (M)) [M] | fluorescence imaging of cells (RAW264.7 cells) | fluorescent signal after indomethacin pretreatment (RAW264.7 cells) | fluorescent staining of cells [1] | fluorescent staining after indomethacin pretreatment [1]
COc1ccc2c(c1)c(CC(=O)NCCCCNC(=O)c1ccc(C3=c4cc5c6c(c4Oc4c3cc3c7c4CCCN7CCC3)CCC[N+]=6CCC5)c(C(=O)[O-])c1)c(C)n2C(=O)c1ccc(Cl)cc1 [Compound 27eee] |  |  |  | > 5e-06 | 3.2e-07 |  |  | good specific staining; also recorded: consistent fluorescent signals over control cells | reducible by pretreatment with indomethacin | good specific staining; also recorded: fluorescence above the level observed in control HEK293 cells | reducible by pretreatment with indomethacin
COc1ccc2c(c1)c(CC(=O)NCCCCNC(=O)c1ccc(C(=O)O)c(-c3c4ccc(=O)cc-4oc4cc(O)ccc34)c1)c(C)n2C(=O)c1ccc(Cl)cc1 [Compound 27qq, N-[(Fluorescein-6-carboxylamido)but-4-yl]-2-[1-(4-chlorobenzoyl)-5-methoxy-2-methyl-1H-indol-3-yl)acetamide] |  |  | 1.88e-07 | > 5e-06 |  |  |  |  |  |  | 
CC[N+](CC)=c1ccc2c(-c3ccccc3)c(C)c(/C=C/C=C3/N(CCCCCC(=O)NCCCCNC(=O)Cc4c(C)n(C(=O)c5ccc(Cl)cc5)c5ccc(OC)cc45)c4ccc(S(=O)(=O)[O-])cc4C3(C)C)oc-2c1 [Compound 27ttt] | 731 | 710 | 8.9e-07 | > 5e-06 |  |  |  |  |  |  | 
CC[N+](CC)=c1ccc2nc3c(cc(NC(=O)CCOCCOCCOCCOCCNC(=O)Cc4c(C)n(C(=O)c5ccc(Cl)cc5)c5ccc(OC)cc45)c4ccccc43)oc-2c1 [Compound 27uu, N-[5-)1-{1-(4-chlorobenzoyl)-5-methoxy-2-methyl-1H-indol-3-yl}-2-6,9,12,15-tetraoxa-3-azaoctadecanamido]-9H-benzo[a]penoxazin-9-ylidene)-N-ethylethanaminium perchlorate] | 670 | 618 | 8.5e-08 | > 2.5e-05 |  |  |  |  |  |  | 
COc1ccc2c(c1)c(CC(=O)NCCCCNC(=O)c1ccc(C(=O)[O-])c(C3=c4cc5c6c(c4Oc4c3cc3c7c4CCCN7CCC3)CCC[N+]=6CCC5)c1)c(C)n2C(=O)c1ccc(Cl)cc1 [Compound 27vv] | 603 | 581 |  | > 5e-06 |  |  |  | LPS activation enhanced imaging; also recorded: consistent fluorescent signals over control cells | reduced the fluorescent signal | clearly observable fluorescent staining; also recorded: fluorescence above the level observed in control HEK293 cells | reduced
COC(=O)c1cc(-c2ccc(C)cc2)n(-c2ccc(S(N)(=O)=O)cc2)n1 [Compound 30b] |  |  |  |  |  | 1.1e-07 | > 5e-06 |  |  |  | 

Continued, in another order:

Fluor. λem (Fluorescence in buffer) [nm] | Fluor. λex (Fluorescence in buffer) [nm] | IC50 (COX-2; [2]) [M] | IC50 (COX-1; Table 3, macrophage assay) [M] | IC50 (COX-2; read-out: IC50 in RAW 264.7 cells) [M] | IC50 (COX-2; Table 2, macrophage assay (M), read-out: IC50 COX-2) [M] | IC50 (COX-1; Table 2, macrophage assay (M)) [M] | Compound | fluorescence imaging of cells (RAW264.7 cells) | fluorescent signal after indomethacin pretreatment (RAW264.7 cells) | fluorescent staining of cells [1] | fluorescent staining after indomethacin pretreatment [1]
450 | 390 | 1.8e-07 | > 2.5e-06 |  |  |  | COc1ccc2c(c1)c(CC(=O)NCCNS(=O)(=O)c1ccc(/N=N/c3ccc(N(C)C)cc3)cc1)c(C)n2C(=O)c1ccc(Cl)cc1 [Compound 27aa, N-(2-Dabsylaminoethyl)-2-{1-(4-chlorobenzoyl)-5-methoxy-2-methyl-1H-indol-3-yl}acetamide] |  |  |  | 
605 | 492 | 5.7e-07 | > 1e-05 |  |  |  | COc1ccc2c(c1)c(CC(=O)NCCCCNC(=O)Cc1ccc(Nc3ccc([N+](=O)[O-])c4nonc34)cc1)c(C)n2C(=O)c1ccc(Cl)cc1 [Compound 27ii, N-([2-{4-(7-nitrobenzo[1,2,5]oxadiazol-4-ylamino)phenyl}acetamido]but-4-yl)-2-{1-(4-chlorobenzoyl)-5-methoxy-2-methyl-1H-indol-3-yl]acetamide] |  |  |  | 
493 | 355 | 3e-08 | > 1e-06 |  |  |  | COc1ccc2c(c1)c(CC(=O)NCCNS(=O)(=O)c1cccc3c(N(C)C)cccc13)c(C)n2C(=O)c1ccc(Cl)cc1 [Compound 27x] |  |  |  | 
